Values quoted from earlier work as cited in PMC4108727 (Angewandte Chemie (International ed. in English), 2013).

Target: MTH1 (Homo sapiens, UniProt P36639)
Conditions: substrate of MTH1; cited from earlier work

For Nc1nc2c([nH]c(=O)n2[C@H]2C[C@H](O)[C@@H](COP(=O)(O)OP(=O)(O)OP(=O)(O)O)O2)c(=O)[nH]1 [8-oxo-dGTP], the Km is listed as 15.2 µM.

In the case of Nc1ncnc2c1[nH]c(=O)n2[C@H]1C[C@H](O)[C@@H](COP(=O)(O)OP(=O)(O)OP(=O)(O)O)O1 [8-oxo-dATP], the Km is given as 13.9 µM.
